Measurements published in patent publication US20210300924A1, “5-[6-[[3-(4,5,6,7-TETRAHYDROPYRAZOLO[4,3-C]PYRIDIN-1-YL)AZETIDIN-1-YL]METHYL]MORPHOLIN-4-YL]QUINOLINE-8-CARBONITRILE DERIVATIVES AND SIMILAR COMPOUNDS AS TLR7-9 ANTAGONISTS FOR TREATING SYSTEMIC LUPUS ERYTHEMATOSUS” (Hoffmann-La Roche Inc., priority 2018, published 2021).

These compounds were tested against T1, human TLR7 (Homo sapiens, UniProt Q9NYK1) (assay: HEK293-Blue-hTLR-7 cells assay). Details: HEK293-Blue-hTLR7 cells, R848 stimulation, 20 hrs, SEAP reporter; read-out: HEK/hTLR7 IC50.
T1 construct: host or cells: HEK293 (HEK-Blue hTLR7)
T1 sequence (Q9NYK1 27-1049): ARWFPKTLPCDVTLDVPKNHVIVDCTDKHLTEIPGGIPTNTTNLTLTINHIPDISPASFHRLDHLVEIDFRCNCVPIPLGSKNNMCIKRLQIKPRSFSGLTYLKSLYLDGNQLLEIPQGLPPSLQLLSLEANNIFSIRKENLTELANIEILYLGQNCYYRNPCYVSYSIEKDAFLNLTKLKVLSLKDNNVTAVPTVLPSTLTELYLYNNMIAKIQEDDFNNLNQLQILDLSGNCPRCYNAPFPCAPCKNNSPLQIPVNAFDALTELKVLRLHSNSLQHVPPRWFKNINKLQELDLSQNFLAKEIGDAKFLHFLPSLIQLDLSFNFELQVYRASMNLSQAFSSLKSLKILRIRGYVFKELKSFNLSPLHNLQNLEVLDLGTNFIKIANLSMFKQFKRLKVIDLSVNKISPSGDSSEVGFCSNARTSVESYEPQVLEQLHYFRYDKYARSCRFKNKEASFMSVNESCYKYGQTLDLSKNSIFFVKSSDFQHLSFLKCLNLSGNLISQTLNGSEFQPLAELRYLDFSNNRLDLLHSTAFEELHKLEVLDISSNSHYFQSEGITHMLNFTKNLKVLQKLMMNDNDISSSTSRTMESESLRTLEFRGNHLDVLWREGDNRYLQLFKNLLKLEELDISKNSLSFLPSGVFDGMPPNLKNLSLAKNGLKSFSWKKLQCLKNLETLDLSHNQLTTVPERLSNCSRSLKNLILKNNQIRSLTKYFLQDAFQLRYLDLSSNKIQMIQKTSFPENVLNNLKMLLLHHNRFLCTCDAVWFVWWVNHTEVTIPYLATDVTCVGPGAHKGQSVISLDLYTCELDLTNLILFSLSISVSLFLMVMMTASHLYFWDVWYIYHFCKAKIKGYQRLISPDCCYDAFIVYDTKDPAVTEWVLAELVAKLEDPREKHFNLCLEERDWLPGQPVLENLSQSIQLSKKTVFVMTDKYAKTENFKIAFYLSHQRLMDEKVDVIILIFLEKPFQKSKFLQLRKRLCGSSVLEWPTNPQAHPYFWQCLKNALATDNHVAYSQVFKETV
Type: cell-based
From the text: HEK293-Blue-hTLR-7 cells assay:
A stable HEK293-Blue-hTLR-7 cell line was purchased from InvivoGen (Cat. #: hkb-htlr7, San Diego, Calif., USA). These cells were originally designed for studying the stimulation of human TLR7 by monitoring the activation of NF-κB. A SEAP (secreted embryonic alkaline phosphatase) reporter gene was placed under the control of the IFN-β minimal promoter fused to five NF-κB and AP-1-binding sites. The SEAP was induced by activating NF-κB and AP-1 via stimulating HEK-Blue hTLR7 cells with TLR7 ligands. Therefore the reporter expression was declined by TLR7 antagonist under the stimulation of a ligand, such as R848 (Resiquimod), for incubation of 20 hrs. The cell culture supernatant SEAP reporter activity was determined using QUANTI-Blue™ kit (Cat. #: rep-qb1, Invivogen, San Diego, Ca, USA) at a wavelength of 640 nm, a detection medium that turns purple or blue in the presence of alkaline phosphatase.
HEK293-Blue-hTLR7 cells were incubated at a density of 250,000-450,000 cells/mL in a volume of 170 μL in a 96-well plate in Dulbecco's Modified Eagle's medium (DMEM) containing 4.5 g/L glucose, 50 U/mL penicillin, […], […], 2 mM L-glutamine, 10% (v/v) heat-inactivated fetal bovine serum with addition of 20 μL test compound in a serial dilution in the presence of final DMSO at 1% and 10 μL of 20 uM R848 in above DMEM, perform incubation under 37° C. in a CO2 incubator for 20 hrs. Then 20 μL of the supernatant from each well was incubated with 180 μL Quanti-blue substrate solution at 37° C. for 2 hrs and the absorbance was read at 620˜655 nm using a spectrophotometer. The signaling pathway that TLR7 activation leads to downstream NF-κB activation has been widely accepted, and therefore similar reporter assay was modified for evaluating TLR7 antagonist.

Going from `C[C@@H]1Cc2nn(C3CN(C[C@H]4CN(c5ccc(C#N)c6ncccc56)C[C@@H](C)O4)C3)cc2CN1` [Example 17, 5-[(2R,6S)-2-methyl-6-[[3-[(6R)-6-methyl-4,5,6,7-tetrahydropyrazolo[4,3-c]pyridin-2-yl]azetidin-1-yl]methyl]morpholin-4-yl]quinoline-8-carbonitrile] to `C[C@@H]1CN(c2ccc(C#N)c3ncccc23)C[C@H](CN2CC(n3cc4c(n3)C[C@H](C)NC4)C2)O1` [Example 19, 5-[(2R,6S)-2-methyl-6-[[3-[(6S)-6-methyl-4,5,6,7-tetrahydropyrazolo[4,3-c]pyridin-2-yl]azetidin-1-yl]methyl]morpholin-4-yl]quinoline-8-carbonitrile], the IC50 rises from 4 nM to 19 nM (4.8-fold).

Going from `CC(C)N1CCc2cnn(C3CN(C[C@H]4CN(c5ccc(C#N)c6ncccc56)C[C@@H](C)O4)C3)c2C1` [Example 8, 5-[(2S,6R)-2-[[3-(6-isopropyl-5,7-dihydro-4H-pyrazolo[3,4-c]pyridin-1-yl)azetidin-1-yl]methyl]-6-methyl-morpholin-4-yl]quinoline-8-carbonitrile] to `CC(C)N1CCc2cn(C3CN(C[C@H]4CN(c5ccc(C#N)c6ncccc56)C[C@@H](C)O4)C3)nc2C1` [Example 9, 5-[(2S,6R)-2-[[3-(6-isopropyl-5,7-dihydro-4H-pyrazolo[3,4-c]pyridin-2-yl)azetidin-1-yl]methyl]-6-methyl-morpholin-4-yl]quinoline-8-carbonitrile], the IC50 falls from 18 nM to 12 nM (1.5-fold).

Compared with `C[C@@H]1CN(c2ccc(C#N)c3ncccc23)C[C@H](CN2CC(n3cc4c(n3)[C@H](C)NCC4)C2)O1` (single isomer, unassigned) [Example 34], `C[C@@H]1CN(c2ccc(C#N)c3ncccc23)C[C@H](CN2CC(n3cc4c(n3)CCN[C@@H]4C)C2)O1` [Example 21, 5-[(2R,6S)-2-methyl-6-[[3-[(4R)-4-methyl-4,5,6,7-tetrahydropyrazolo[4,3-c]pyridin-2-yl]azetidin-1-yl]methyl]morpholin-4-yl]quinoline-8-carbonitrile] is 3-fold higher in IC50: 6 nM for the first, 18 nM for the second.

`C[C@@H]1CN(c2ccc(C#N)c3ncccc23)C[C@H](CN2CC(n3ncc4c3CCN[C@@H]4C)C2)O1` [Example 20, 5-[(2R,6S)-2-methyl-6-[[3-[(4R)-4-methyl-4,5,6,7-tetrahydropyrazolo[4,3-c]pyridin-1-yl]azetidin-1-yl]methyl]morpholin-4-yl]quinoline-8-carbonitrile] and `C[C@@H]1CN(c2ccc(C#N)c3ncccc23)C[C@H](CN2CC(n3ncc4c3CCN[C@H]4C)C2)O1` [Example 22, 5-[(2R,6S)-2-methyl-6-[[3-[(4S)-4-methyl-4,5,6,7-tetrahydropyrazolo[4,3-c]pyridin-1-yl]azetidin-1-yl]methyl]morpholin-4-yl]quinoline-8-carbonitrile] are the same in IC50: 5 nM for the first, 5 nM for the second.

First: Cc1c2c(nn1C1CN(C[C@H]3CN(c4ccc(C#N)c5ncccc45)C[C@@H](C)O3)C1)CNCC2 [Example 43, 5-[(2R,6S)-2-methyl-6-[[3-(3-methyl-4,5,6,7-tetrahydropyrazolo[3,4-c]pyridin-2-yl)azetidin-1-yl]methyl]morpholin-4-yl]quinoline-8-carbonitrile]
Second: Cc1nn(C2CN(C[C@H]3CN(c4ccc(C#N)c5ncccc45)C[C@@H](C)O3)C2)c2c1CCNC2 [Example 42, 5-[(2R,6S)-2-methyl-6-[[3-(3-methyl-4,5,6,7-tetrahydropyrazolo[3,4-c]pyridin-1-yl)azetidin-1-yl]methyl]morpholin-4-yl]quinoline-8-carbonitrile]
The IC50 of the first is 2.4-fold higher: 17 nM for the first, 7 nM for the second.

First: Cc1nn(C2CN(C[C@H]3CN(c4ccc(C#N)c5ncccc45)C[C@@H](C)O3)C2)c2c1CN(C)CC2 [Example 14, 5-[(2S,6R)-2-[[3-(3,5-dimethyl-6,7-dihydro-4H-pyrazolo[4,3-c]pyridin-1-yl)azetidin-1-yl]methyl]-6-methyl-morpholin-4-yl]quinoline-8-carbonitrile]
Second: Cc1c2c(nn1C1CN(C[C@H]3CN(c4ccc(C#N)c5ncccc45)C[C@@H](C)O3)C1)CCN(C)C2 [Example 15, 5-[(2S,6R)-2-[[3-(3,5-dimethyl-6,7-dihydro-4H-pyrazolo[4,3-c]pyridin-2-yl)azetidin-1-yl]methyl]-6-methyl-morpholin-4-yl]quinoline-8-carbonitrile]
The IC50 of the first is 2.9-fold higher: 26 nM for the first, 9 nM for the second.

Going from `C[C@@H]1CN(c2ccc(C#N)c3ncccc23)C[C@H](CN2CC(n3cc4c(n3)CCN[C@H]4C)C2)O1` [Example 23, 5-[(2R,6S)-2-methyl-6-[[3-[(4S)-4-methyl-4,5,6,7-tetrahydropyrazolo[4,3-c]pyridin-2-yl]azetidin-1-yl]methyl]morpholin-4-yl]quinoline-8-carbonitrile] to `C[C@@H]1CN(c2ccc(C#N)c3ncccc23)C[C@H](CN2CC(n3ncc4c3[C@H](C)NCC4)C2)O1` (single isomer, unassigned) [Example 32], the IC50 falls from 13 nM to under 3 nM. The second is the more potent here.

`C[C@@H]1CN(c2ccc(C#N)c3ncccc23)C[C@H](CN2CC(n3ncc4c3CN[C@@H](C)C4)C2)O1` (single isomer, unassigned) [Example 27] and `C[C@@H]1Cc2cnn(C3CN(C[C@H]4CN(c5ccc(C#N)c6ncccc56)C[C@@H](C)O4)C3)c2CN1` (single isomer, unassigned) [Example 28] are within 1.5-fold of each other in IC50: 6 nM for the first, 5 nM for the second.

First: C[C@@H]1CN(c2ccc(C#N)c3ncccc23)C[C@H](CN2CC(n3cc4c(n3)[C@H](C)CNC4)C2)O1 (single isomer, unassigned) [Example 25]
Second: C[C@@H]1CN(c2ccc(C#N)c3ncccc23)C[C@H](CN2CC(n3cc4c(n3)[C@@H](C)CNC4)C2)O1 (single isomer, unassigned) [Example 26]
The IC50 of the first is 1.5-fold lower: 4 nM for the first, 6 nM for the second. The first is the more potent here.

Going from `C[C@@H]1CN(c2ccc(C#N)c3ncccc23)C[C@H](CN2CC(n3ncc4c3[C@@H](C)NCC4)C2)O1` (single isomer, unassigned) [Example 31] to `C[C@@H]1CN(c2ccc(C#N)c3ncccc23)C[C@H](CN2CC(n3ncc4c3C[C@H](C)NC4)C2)O1` [Example 18, 5-[(2R,6S)-2-methyl-6-[[3-[(6S)-6-methyl-4,5,6,7-tetrahydropyrazolo[4,3-c]pyridin-1-yl]azetidin-1-yl]methyl]morpholin-4-yl]quinoline-8-carbonitrile], the IC50 rises from under 3 nM to 17 nM. The first is the more potent here.

Going from `C[C@@H]1CN(c2ccc(C#N)c3ncccc23)C[C@H](CN2CC(n3cc4c(n3)C(C)(C)CNC4)C2)O1` [Example 24, 5-[(2S,6R)-2-[[3-(7,7-dimethyl-5,6-dihydro-4H-pyrazolo[4,3-c]pyridin-2-yl)azetidin-1-yl]methyl]-6-methyl-morpholin-4-yl]quinoline-8-carbonitrile] to `C[C@@H]1CN(c2ccc(C#N)c3ncccc23)C[C@H](CN2CC(n3ncc4c3CNC4)C2)O1` [Example 10, 5-[(2S,6R)-2-[[3-(5,6-dihydro-4H-pyrrolo[3,4-c]pyrazol-1-yl)azetidin-1-yl]methyl]-6-methyl-morpholin-4-yl]quinoline-8-carbonitrile], the IC50 rises from 4 nM to 16 nM (4-fold).

`CCN1CCc2cn(C3CN(C[C@H]4CN(c5ccc(C#N)c6ncccc56)C[C@@H](C)O4)C3)nc2C1` [Example 7, 5-[(2S,6R)-2-[[3-(6-ethyl-5,7-dihydro-4H-pyrazolo[3,4-c]pyridin-2-yl)azetidin-1-yl]methyl]-6-methyl-morpholin-4-yl]quinoline-8-carbonitrile] gave an IC50 of 8 nM.
